One data set relates to HepG2 cells. The data set is described as follows: ACAT inhibitory activity (anti-foamation activity) in HepG2 cells. It is filed as cell-based. As to conditions: Homo sapiens, 25-OH cholesterol 10 μg/ml, 18 hours, read-out: Enzyme (HepG2) IC50. The protocol:
(§1) J774 cells or HepG2 cells were spread on a 24-well plate. The cells were incubated in a 5% CO2 incubator at 37° C. for 24 hours using DMEM in the case of the J774 cells and a MEM culture solution in the case of the HepG2 cells (both containing 10% fetal calf serum).
(§2) The medium was removed, and the residue was washed twice with PBS, then extracted with 1.5 ml of a hexane:isopropanol (3:2) mixture, and concentrated to dryness. The extract was dissolved in 0.2 ml of isopropanol containing 10% Triton X-100. Total cholesterol (TC) and free cholesterol (FC) were measured using Cholesterol E Test Wako (supplied by Wako Pure Chemical Industries, Ltd.) and Free Cholesterol E Test Wako (supplied by Wako Pure Chemical Industries, Ltd.).
(§3) The cell extract residue was solubilized in 0.25 ml of 2N NaOH at 37° C. for 30 minutes, and the protein amount was measured using BCA Protein Assay Reagent (Pierce).
(§4) The amount of cholesterol based on the protein was calculated from the difference between TC and FC, and an IC50 value was obtained from the calculation in contrast with the control.

For another data set, the system named is J774 cells. The data set is described as follows: ACAT inhibitory activity (anti-foamation activity) in J774 cells. As to conditions: for IC50: Mus musculus, J774 cells, 25-OH cholesterol 10 μg/ml, 18 hours, read-out: Enzyme (J774) IC50; for IC50 (HepG2)/IC50 (J774): ratio HepG2 / J774. It is filed as cell-based. The protocol: as §1, §2, §3, §4
Data set [1] deals with T1, ACAT (enzyme solution derived from the small intestine of a rabbit).
T1 construct: An enzyme solution derived from the small intestine was prepared from the small intestine of a rabbit that had eaten a normal food
The data set is described as follows: ACAT inhibitory activity, enzyme solution from rabbit small intestine. It is filed as biochemical. As to conditions: B‡: the small intestine. How it is done:
(§5) A microsome was prepared from the breast aorta of a rabbit which had been fed with 1% cholesterol food for 8 weeks in a usual manner, and suspended in a 0.15 M phosphate buffer solution (pH 7.4) to form an enzyme solution. An enzyme solution derived from the small intestine was prepared from the small intestine of a rabbit that had eaten a normal food.
(§6) To this solution were added 10 μl of the enzyme solution, and the mixture was reacted at 37° C. for 5 minutes (for 3 minutes in the case of the small intestine). Then, 3 ml of a chloroform/methanol (2/1) mixture and 0.5 ml of 0.04 N hydrochloric acid were added thereto to stop the reaction. The lipid was then extracted. The solvent layer was concentrated to dryness, and dissolved in hexane. The solution was spotted on a TLC plate(supplied by Merck Co.). The elution was conducted with a hexane:ether:acetic acid (75:25:1) mixture.
(§7) The radioactivity of the resulting cholesterol ester fraction was measured using BAS 2000 (supplied by Fuji Photo Film Co., Ltd.). An IC50 value was obtained from the calculation in contrast with a control containing only DMSO.

Data set [2] concerns the target ACAT (microsome from the breast aorta of a rabbit) (Oryctolagus cuniculus, UniProt G1SUQ0). The data set is described as follows: ACAT inhibitory activity, microsome from rabbit breast aorta (blood vessel wall enzyme). It is filed as biochemical. As to conditions: microsome from breast aorta of cholesterol-fed rabbit. The protocol: as §5, §6, §7

These results are taken from patent US7414066B2, “Amide compounds and medications containing the same technical field” (Kowa Company Ltd., priority 1999, dated 2008).

A word on the IC50: it is the midpoint of a concentration-inhibition curve. As usually defined, the melting point is the temperature, or range, at which the solid turns liquid.

Sequence of ACAT (microsome from the breast aorta of a rabbit) (G1SUQ0 entry or part of it): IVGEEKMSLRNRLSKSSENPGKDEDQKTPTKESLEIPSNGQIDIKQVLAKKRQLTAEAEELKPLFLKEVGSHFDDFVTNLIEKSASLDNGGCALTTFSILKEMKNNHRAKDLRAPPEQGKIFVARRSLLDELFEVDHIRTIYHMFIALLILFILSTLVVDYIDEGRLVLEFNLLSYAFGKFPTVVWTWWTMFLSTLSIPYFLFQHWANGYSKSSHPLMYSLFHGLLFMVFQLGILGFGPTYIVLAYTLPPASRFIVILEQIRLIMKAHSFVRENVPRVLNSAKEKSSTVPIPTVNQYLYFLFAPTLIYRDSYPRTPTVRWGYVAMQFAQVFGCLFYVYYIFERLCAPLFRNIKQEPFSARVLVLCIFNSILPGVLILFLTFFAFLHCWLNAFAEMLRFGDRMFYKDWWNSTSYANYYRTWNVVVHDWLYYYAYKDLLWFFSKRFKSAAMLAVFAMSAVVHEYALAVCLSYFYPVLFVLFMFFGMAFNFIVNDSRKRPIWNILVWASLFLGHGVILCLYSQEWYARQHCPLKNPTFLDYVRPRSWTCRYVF

`Cc1cc(SC(C)C)c(NC(=O)CCCCCCSc2nc3cccc(C(F)(F)F)c3o2)c(SC(C)C)n1` [Compound No. 1292, 7-(7-trifluoromethylbenzoxazol-2-ylthio)-N-[2,4-bis(isopropylthio)-6-methyl-3-pyridyl]heptanamide] displayed a melting point of 76 to 78 °C. For the same compound, the IC50 in the data set on HepG2 cells came out at 30 nM. Besides, in the data set with J774 cells, the IC50 came to 2.7 nM and the “IC50 (HepG2)/IC50 (J774)” value is listed as 11.1.
Take `CC(C)c1cccc(C(C)C)c1NC(=O)C(C)(C)CCCOc1ccc2c(c1)C=C(c1nccn1C)C(CCc1ccc(F)cc1)O2` (stereo not drawn) [Control 1, 5-[2-(2-(4-fluorophenyl)ethyl)-3-(1-methyl-1H-imidazol-2-yl)-2H-1-benzopyran-6-yl]oxy-2,2-dimethyl-N-(2,6-diisopropylphenyl)pentanamide, reference compound]: the values for the IC50 (in data set [1]; in the data set on J774 cells) were 870 nM and 560 nM, respectively.
`CC(C)c1cccc(C(C)C)c1NC(=O)CCCCCSc1nc2ccccc2o1` [Control 5, 6-(benzoxazol-2-ylthio)-N-(2,6-diisopropylphenyl)hexanamide, reference compound]: the IC50 in data set [1] was 65 nM; in the data set on J774 cells, 1900 nM.
The compound `Cc1cc(SC(C)C)c(NC(=O)CCCCCCCCSc2nc3cccc(C(F)(F)F)c3o2)c(SC(C)C)n1` [Compound No. 1294, 9-(7-trifluoromethylbenzoxazol-2-ylthio)-N-[2,4-bis(isopropylthio)-6-methyl-3-pyridyl]nonanamide] showed a melting point of 97 to 98 °C. Also, the IC50 in the data set with HepG2 cells was 2.4 nM. In the data set with J774 cells, the IC50 stood at 4.2 nM and the “IC50 (HepG2)/IC50 (J774)” value is given as 0.6.
As for `CCCCCCCCCN(CC(C)(C)C)C(=O)N[C@H]1CCCC[C@@H]1OC(=O)CCNC(=O)C1OC(C)(C)OCC1(C)C` (stereo partly drawn) [Control 3, N-(2,2,5,5-tetramethyl-1,3-dioxan-4-ylcarbonyl)-β-alanine 2 (S)-[N′-(2,2-dimethylpropyl)-N′-nonylureido]-1(S)-cyclohexyl ester], the 50% inhibitory concentration (IC50) came out at 56 nM in data set [1], 34 nM in data set [2] and 320 nM in the data set on J774 cells.
